Measured values taken from PubChem BioAssay AID248 (DTP/NCI, 2004).
Where “and” joins values, the source holds several entries; their conditions need not be identical. Identical values can stand only once. Inconclusive results and toxic doses are left out. No stated cut-off is given here; in the data, active means T/C of 150% or more; inactive means T/C below 125%.

Tested on: L1210 leukemia ip in BDF1 mice, survival T/C
Test: NCI In Vivo Anticancer Drug Screen. Data for tumor model L1210 Leukemia (intraperitoneal) in B6D2F1 (BDF1) mice
Details: endpoint: mean survival time, higher = longer survival
Procedure, shortened: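 Antitumor effect is assessed in tumor-bearing animals. Survival in the compound arm is compared with a vehicle-dosed control arm and expressed as their quotient.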

[1] = dose: 100.0 mg/kg/injection, schedule: Q04DX002 (ip), vehicle: Klucel (hydroxypropylcellulose) (HPC)
[2] = dose: 100.0 mg/kg/injection, schedule: Q04DX002 (ip), vehicle: saline with Tween-80
[3] = dose: 200.0 mg/kg/injection, schedule: Q04DX002 (ip), vehicle: saline with Tween-80
[4] = dose: 400.0 mg/kg/injection, schedule: Q04DX002 (ip), vehicle: saline with Tween-80
[5] = dose: 100.0 mg/kg/injection, schedule: Q01DX001 (ip), vehicle: Klucel (hydroxypropylcellulose) (HPC)
[6] = dose: 200.0 mg/kg/injection, schedule: Q01DX001 (ip), vehicle: Klucel (hydroxypropylcellulose) (HPC)
[7] = dose: 100.0 mg/kg/injection, schedule: Q01DX009 (ip), vehicle: saline
[8] = dose: 200.0 mg/kg/injection, schedule: Q01DX009 (ip), vehicle: saline
[9] = dose: 100.0 mg/kg/injection, schedule: Q04DX003 (ip), vehicle: Klucel (hydroxypropylcellulose) (HPC)
[10] = dose: 100.0 mg/kg/injection, schedule: Q04DX003 (ip), vehicle: saline with Tween-80
[11] = dose: 200.0 mg/kg/injection, schedule: Q04DX003 (ip), vehicle: saline with Tween-80
[12] = dose: 400.0 mg/kg/injection, schedule: Q04DX003 (ip), vehicle: saline with Tween-80
[13] = dose: 100.0 mg/kg/injection, schedule: Q01DX001 (ip), vehicle: carboxymethylcellulose (CMC)
[14] = dose: 200.0 mg/kg/injection, schedule: Q01DX001 (ip), vehicle: carboxymethylcellulose (CMC)
[15] = dose: 400.0 mg/kg/injection, schedule: Q01DX001 (ip), vehicle: carboxymethylcellulose (CMC)

Measured: T/C

COc1ccc(C(=O)c2c(C(=O)O)ccc3ccccc23)cc1
inactive: dose: 100.0 mg/kg/injection, schedule: Q01DX009 (ip), vehicle: saline with Tween-80 104 % of control | dose: 100.0 mg/kg/injection, schedule: Q04DX003 (ip), vehicle: other 101 % of control | dose: 200.0 mg/kg/injection, schedule: Q01DX009 (ip), vehicle: saline with Tween-80 95 % of control | dose: 200.0 mg/kg/injection, schedule: Q04DX003 (ip), vehicle: other 100 % of control | dose: 400.0 mg/kg/injection, schedule: Q01DX009 (ip), vehicle: saline with Tween-80 106 % of control | dose: 400.0 mg/kg/injection, schedule: Q04DX003 (ip), vehicle: other 100 % of control

COc1cc(-c2nc(CCl)no2)cc(OC)c1OC
inactive: [1] 95 % of control | dose: 200.0 mg/kg/injection, schedule: Q04DX002 (ip), vehicle: Klucel (hydroxypropylcellulose) (HPC) 104 % of control | dose: 400.0 mg/kg/injection, schedule: Q04DX002 (ip), vehicle: Klucel (hydroxypropylcellulose) (HPC) 104 % of control

CC1C(C)(C)P(=O)(SCc2ccccc2)C1(C)C (stereo unspecified)
inactive: dose: 100.0 mg/kg/injection, schedule: Q04DX003 (ip), vehicle: saline 94 % of control | dose: 200.0 mg/kg/injection, schedule: Q04DX003 (ip), vehicle: saline 103 % of control | dose: 400.0 mg/kg/injection, schedule: Q04DX003 (ip), vehicle: saline 100 % of control

O=C(O)c1cc2c(cc1[N+](=O)[O-])OCO2
inactive: [2] 104 % of control | [3] 92 % of control | [4] 90 % of control

NC(N)=N/N=C1\CCCC\C1=N/N=C(N)N
inactive: dose: 15.0 mg/kg/injection, schedule: Q01DX Z (ip), vehicle: carboxymethylcellulose (CMC) 97 % of control | dose: 30.0 mg/kg/injection, schedule: Q01DX Z (ip), vehicle: carboxymethylcellulose (CMC) 95 % of control | dose: 60.0 mg/kg/injection, schedule: Q01DX Z (ip), vehicle: carboxymethylcellulose (CMC) 91 % of control | dose: 60.0 mg/kg/injection, schedule: Q01DX Z (oral), vehicle: carboxymethylcellulose (CMC) 96 % of control | dose: 120.0 mg/kg/injection, schedule: Q01DX Z (ip), vehicle: carboxymethylcellulose (CMC) 102 % of control | dose: 120.0 mg/kg/injection, schedule: Q01DX Z (oral), vehicle: carboxymethylcellulose (CMC) 93 % of control | dose: 240.0 mg/kg/injection, schedule: Q01DX Z (oral), vehicle: carboxymethylcellulose (CMC) 88 % of control | dose: 480.0 mg/kg/injection, schedule: Q01DX Z (oral), vehicle: carboxymethylcellulose (CMC) 98 % of control

CNC(=O)C1OC(n2cnc3c(N)ncnc32)C(O)C1O (stereo unspecified)
inactive: dose: 0.19 mg/kg/injection, schedule: Q01DX005 (ip), vehicle: saline 110 % of control | dose: 0.19 mg/kg/injection, schedule: Q01DX009 (ip), vehicle: saline 114 % of control | dose: 0.39 mg/kg/injection, schedule: Q01DX005 (ip), vehicle: saline 105 % of control | dose: 0.39 mg/kg/injection, schedule: Q01DX009 (ip), vehicle: saline 93 % of control | dose: 0.78 mg/kg/injection, schedule: Q01DX005 (ip), vehicle: saline 116 % of control | dose: 0.78 mg/kg/injection, schedule: Q01DX009 (ip), vehicle: saline 103 % of control

O=C(CCCc1ccc(N(CCCl)CCCl)cc1)OCCc1ccccc1
inactive: dose: 25.0 mg/kg/injection, schedule: Q04DX002 (ip), vehicle: saline 111 % of control | dose: 50.0 mg/kg/injection, schedule: Q04DX002 (ip), vehicle: saline 114 % of control | dose: 100.0 mg/kg/injection, schedule: Q04DX002 (ip), vehicle: saline 124 % of control | dose: 200.0 mg/kg/injection, schedule: Q04DX002 (ip), vehicle: saline 112 % of control and 122 % of control | dose: 400.0 mg/kg/injection, schedule: Q04DX002 (ip), vehicle: saline 112 % of control

O=P1(c2ccccc2)CCc2[nH]c3ccc(F)cc3c2C1 (stereo unspecified)
inactive: [5] 97 % of control | [6] 100 % of control | dose: 400.0 mg/kg/injection, schedule: Q01DX001 (ip), vehicle: Klucel (hydroxypropylcellulose) (HPC) 98 % of control

CNC(=O)NCc1cccnc1
inactive: [7] 111 % of control | [8] 103 % of control | dose: 400.0 mg/kg/injection, schedule: Q01DX009 (ip), vehicle: saline 114 % of control

CCN(CC)CCN(CCN(CC)CC)c1ccc2ccccc2c1
inactive: dose: 75.0 mg/kg/injection, schedule: Q01DX001 (ip), vehicle: acetone 111 % of control

Nc1nc(Br)c(Br)nc1C(=O)O
inactive: dose: 12.5 mg/kg/injection, schedule: Q01DX009 (ip), vehicle: Klucel (hydroxypropylcellulose) (HPC) 101 % of control and 103 % of control | dose: 25.0 mg/kg/injection, schedule: Q01DX009 (ip), vehicle: Klucel (hydroxypropylcellulose) (HPC) 97 % of control | dose: 50.0 mg/kg/injection, schedule: Q01DX001 (ip), vehicle: Klucel (hydroxypropylcellulose) (HPC) 101 % of control | dose: 50.0 mg/kg/injection, schedule: Q01DX009 (ip), vehicle: Klucel (hydroxypropylcellulose) (HPC) 95 % of control and 91 % of control | dose: 50.0 mg/kg/injection, schedule: Q04DX002 (ip), vehicle: Klucel (hydroxypropylcellulose) (HPC) 104 % of control | dose: 50.0 mg/kg/injection, schedule: Q04DX003 (ip), vehicle: Klucel (hydroxypropylcellulose) (HPC) 103 % of control | [5] 102 % of control | [1] 100 % of control | [9] 106 % of control | [6] 96 % of control

O=C(/C=C/C(=O)Oc1c(Cl)cc(Cl)cc1Cl)Oc1c(Cl)cc(Cl)cc1Cl
inactive: dose: 100.0 mg/kg/injection, schedule: Q01DX009 (ip), vehicle: Klucel (hydroxypropylcellulose) (HPC) 106 % of control | [9] 96 % of control | [10] 96 % of control | dose: 200.0 mg/kg/injection, schedule: Q01DX009 (ip), vehicle: Klucel (hydroxypropylcellulose) (HPC) 104 % of control | dose: 200.0 mg/kg/injection, schedule: Q04DX003 (ip), vehicle: Klucel (hydroxypropylcellulose) (HPC) 105 % of control | [11] 93 % of control | dose: 400.0 mg/kg/injection, schedule: Q01DX009 (ip), vehicle: Klucel (hydroxypropylcellulose) (HPC) 96 % of control | dose: 400.0 mg/kg/injection, schedule: Q04DX003 (ip), vehicle: Klucel (hydroxypropylcellulose) (HPC) 98 % of control | [12] 91 % of control

CS(=O)(=O)Nc1nc2ccccc2[nH]1
inactive: dose: 50.0 mg/kg/injection, schedule: Q01DX009 (ip), vehicle: saline 96 % of control | [7] 93 % of control | [8] 86 % of control

CCOC(=O)N1C=Cc2ccccc2C1C#N (stereo unspecified)
inactive: [13] 124 % of control | [14] 98 % of control | [15] 93 % of control

C=CCNC(=S)OCC
inactive: [2] 100 % of control | [3] 97 % of control | [4] 103 % of control

CC(c1ccccc1)N1COc2ccc3ccccc3c2C1 (stereo unspecified)
inactive: dose: 50.0 mg/kg/injection, schedule: Q01DX001 (ip), vehicle: carboxymethylcellulose (CMC) 97 % of control | dose: 50.0 mg/kg/injection, schedule: Q01DX015 (ip), vehicle: carboxymethylcellulose (CMC) 96 % of control | [13] 93 % of control | dose: 100.0 mg/kg/injection, schedule: Q01DX015 (ip), vehicle: carboxymethylcellulose (CMC) 96 % of control | [10] 94 % of control | [14] 103 % of control | dose: 200.0 mg/kg/injection, schedule: Q01DX015 (ip), vehicle: carboxymethylcellulose (CMC) 97 % of control | [11] 93 % of control | [15] 104 % of control | dose: 400.0 mg/kg/injection, schedule: Q01DX015 (ip), vehicle: carboxymethylcellulose (CMC) 90 % of control | [12] 88 % of control

CC/C(=N\NS(=O)(=O)c1ccc(C)cc1)C(C)C
inactive: dose: 75.0 mg/kg/injection, schedule: Q01DX001 (ip), vehicle: saline 95 % of control | dose: 75.0 mg/kg/injection, schedule: Q04DX003 (ip), vehicle: saline 91 % of control | dose: 150.0 mg/kg/injection, schedule: Q01DX001 (ip), vehicle: saline 95 % of control | dose: 150.0 mg/kg/injection, schedule: Q04DX003 (ip), vehicle: saline 100 % of control | dose: 300.0 mg/kg/injection, schedule: Q01DX001 (ip), vehicle: saline 97 % of control | dose: 300.0 mg/kg/injection, schedule: Q04DX003 (ip), vehicle: saline 96 % of control
